Here are results for 22 compounds from ChEMBL document CHEMBL4627397 (J Med Chem, 2020).

SMILES strings stand for the structures.

Data set [1] can be described thus: in vitro. The note with it: human, liver microsomes. A general note: Microsomes from liver hold many membrane-bound enzymes, among them those of drug oxidation.
Data set [2] can be described thus: in vitro. The note with it: human, hepatocytes.
Description: Intrinsic clearance in human hepatocytes at 0.2 nmol assessed per million cells up to 240 mins in presence of NADPH by LC-MS/MS analysis
Data set [3] is described as follows: in vitro. The following applies: dog, MDCK.
Description: Apparent permeability in RRCK cells
The next data set is described as follows: physchem. The note with it: octanol/water, pH 7.4.

Description for physchem: Octanol/water partition coefficient, log D of compound at pH 7.4 by shake-flask method

The term microsomal CLint denotes the capacity of the preparation to metabolise the compound, expressed as a volume cleared per time. A higher microsomal CLint goes with faster metabolism. In general, hepatocyte CLint refers to the rate of metabolic loss divided by the concentration. Low values mean greater metabolic stability, high ones faster metabolism. For orientation: Papp means the rate of passage across a membrane or cell layer, normalised by area and donor concentration. A higher Papp goes with fast passage. What is called logD is lipophilicity at a set pH, counting ionised and neutral species. Low readings indicate lower lipophilicity, high ones higher lipophilicity. In turn, `CCOC(=O)N1C(O)CC(=C2c3ccc(Cl)cc3CCc3cccnc32)CC1O` (configuration not stated) gave a microsomal CLint at 1 h, 10 µM in “in vitro [1]” of 21 µL/min/mg. The intrinsic clearance (hepatocyte CLint) at 4 h in the data set “in vitro [2]” worked out at 14 µL/min/1e6 cells. This compound returned a Papp in “in vitro [3]” of 19.8 ×10⁻⁶ cm/s. In “physchem”, the logD amounted to 2.3.

In turn, `CCOC(=O)N1C=C/C(=C2\c3ccc(Cl)cc3CCc3cc(O)cnc32)CC1` displayed a microsomal CLint at 1 h, 10 µM in “in vitro [1]” of 66 µL/min/mg. The compound also yielded a hepatocyte CLint at 4 h in the data set “in vitro [2]” of 67 µL/min/1e6 cells. The compound further had a logD in “physchem” of 3.1.

`CCOC(=O)N1CCC(=C2c3ccc(Cl)cc3C=Cc3cccnc32)CC1`: the hepatocyte CLint at 4 h in the data set “in vitro [2]” was 9 µL/min/1e6 cells. This compound also showed a Papp in “in vitro [3]” of 98 ×10⁻⁶ cm/s. The same compound showed a logD in “physchem” of 2.6.

`CCOC(=O)N1CCC(=C2c3ccc(Cl)cc3CCc3cc(O)cnc32)CC1`: the microsomal CLint at 1 h, 10 µM in the data set “in vitro [1]” came out at 132 µL/min/mg. In addition, the hepatocyte CLint at 4 h in the data set “in vitro [2]” came to 96 µL/min/1e6 cells. The compound also yielded a Papp in “in vitro [3]” of 11 ×10⁻⁶ cm/s. The compound further gave a logD in “physchem” of 3.1.

In turn, `OC1Cc2cccnc2C(=C2CCNCC2)c2ccc(Cl)cc21` (configuration not stated) displayed an intrinsic clearance (hepatocyte CLint) at 4 h in the data set “in vitro [2]” of less than 1.75 µL/min/1e6 cells. For the same compound, the Papp in “in vitro [3]” was 79.9 ×10⁻⁶ cm/s. In “physchem”, this compound displayed a logD of 0.94.

In the data set “in vitro [3]”, `Clc1ccc2c(c1)CCc1cccnc1C2=C1CCNCC1` [DESLORATADINE] had a Papp of 2.8 ×10⁻⁶ cm/s. In “physchem”, this compound registered a pH-dependent lipophilicity (logD) of 1.3.

In the data set “in vitro [3]”, `CCOC(=O)N1C=C/C(=C2/c3ccc(Cl)cc3CCc3cccnc32)CC1` yielded a Papp of 53 ×10⁻⁶ cm/s. The compound further yielded a logD in the data set “physchem” of 3.6.

For the compound `CCOC(=O)N1CC/C(=C2/c3ccc(Cl)cc3CCc3cccnc32)C(O)C1` (configuration not stated), the intrinsic clearance (microsomal CLint) at 1 h, 10 µM in the data set “in vitro [1]” came to 51 µL/min/mg. This compound also displayed a hepatocyte CLint at 4 h in “in vitro [2]” of 19 µL/min/1e6 cells. Further, in the data set “in vitro [3]”, the Papp worked out at 22 ×10⁻⁶ cm/s. The logD in “physchem” worked out at 3.1.

Compound `CCOC(=O)N1C=C/C(=C2\c3ccc(Cl)cc3CC(O)c3cccnc32)CC1` (configuration not stated) displayed a hepatocyte CLint at 4 h in the data set “in vitro [2]” of 82 µL/min/1e6 cells. Further, the Papp in “in vitro [3]” was found to be 78 ×10⁻⁶ cm/s. This compound also gave a logD in “physchem” of 3.4.

`CCOC(=O)N1CCC(=C2c3ccc(Cl)cc3CCc3ccc[n+](C)c32)CC1` came in with a microsomal CLint at 1 h, 10 µM in “in vitro [1]” of 23 µL/min/mg. In “in vitro [2]”, this compound returned a hepatocyte CLint at 4 h of 6 µL/min/1e6 cells. Moreover, the apparent permeability (Papp) in “in vitro [3]” came to 0.2 ×10⁻⁶ cm/s. Moreover, the logD in “physchem” was determined as 0.3.

In the data set “in vitro [1]”, `CCOC(=O)N1CCC2(CC1)OC21c2ccc(Cl)cc2CCc2cccnc21` (configuration not stated) came in with a microsomal CLint at 1 h, 10 µM of 89 µL/min/mg. This compound registered a hepatocyte CLint at 4 h in the data set “in vitro [2]” of 26.2 µL/min/1e6 cells. Besides, the Papp in “in vitro [3]” was 17.9 ×10⁻⁶ cm/s. The same compound displayed a logD in the data set “physchem” of 2.9.

In the data set “in vitro [1]”, `CCOC(=O)N1C=C/C(=C2/c3ccc(Cl)cc3CCc3cc(O)cnc32)CC1` returned a microsomal CLint at 1 h, 10 µM of 61 µL/min/mg. For the same compound, the hepatocyte CLint at 4 h in “in vitro [2]” came to 62 µL/min/1e6 cells. The compound also showed a logD in the data set “physchem” of 3.9.

The compound `CCOC(=O)N1CCC(=C2c3ccc(Cl)cc3CCc3ccc(C(F)F)nc32)CC1` had a microsomal CLint at 1 h, 10 µM in the data set “in vitro [1]” of 108 µL/min/mg. Moreover, in the data set “in vitro [2]”, the hepatocyte CLint at 4 h turned out to be 48.7 µL/min/1e6 cells. Also, the Papp in “in vitro [3]” came to 7.7 ×10⁻⁶ cm/s. Further, the logD in “physchem” amounted to 4.6.

Consider `CCOC(=O)N1CCC(=C2c3ccc(Cl)cc3CC(F)c3cccnc32)CC1` (configuration not stated), for which, in “in vitro [1]”, the microsomal CLint at 1 h, 10 µM is 120 µL/min/mg. The hepatocyte CLint at 4 h in “in vitro [2]” was found to be 32 µL/min/1e6 cells. This compound yielded a Papp in “in vitro [3]” of 13 ×10⁻⁶ cm/s. Moreover, the log distribution coefficient (logD) in the data set “physchem” was 4.5.

In the data set “in vitro [1]”, `CCOC(=O)N1CCC(=C2c3ccc(Cl)cc3C(O)Cc3cccnc32)CC1` (configuration not stated) returned a microsomal CLint at 1 h, 10 µM of 157 µL/min/mg. The compound also showed a hepatocyte CLint at 4 h in “in vitro [2]” of 40 µL/min/1e6 cells. This compound returned a Papp in “in vitro [3]” of 26.2 ×10⁻⁶ cm/s. The same compound came in with a logD in “physchem” of 3.2.

`CCOC(=O)N1C=C/C(=C2\c3ccc(Cl)cc3CCc3cccnc32)CC1` had a microsomal CLint at 1 h, 10 µM in the data set “in vitro [1]” of 68 µL/min/mg. Further, the apparent permeability (Papp) in the data set “in vitro [3]” is 40 ×10⁻⁶ cm/s. For the same compound, the logD in “physchem” amounted to 4.3.

As to `CCOC(=O)N1CCC(=C2c3ccc(Cl)cc3CCc3ccc[n+]([O-])c32)CC1`, in “in vitro [1]”, the microsomal CLint at 1 h, 10 µM came to 48 µL/min/mg. Besides, the hepatocyte CLint at 4 h in “in vitro [2]” was 17.8 µL/min/1e6 cells. This compound yielded a Papp in the data set “in vitro [3]” of 26.8 ×10⁻⁶ cm/s. Also, the logD in the data set “physchem” was 2.8.

In the case of `CCOC(=O)N1CCC(=C2c3ccc(Cl)cc3CC(O)c3cccnc32)CC1` (configuration not stated), the microsomal CLint at 1 h, 10 µM in the data set “in vitro [1]” was 132 µL/min/mg. Also, the hepatocyte CLint at 4 h in the data set “in vitro [2]” came out at 61.5 µL/min/1e6 cells. The apparent permeability coefficient (Papp) in the data set “in vitro [3]” was 23.7 ×10⁻⁶ cm/s. In addition, the logD in the data set “physchem” came out at 3.3.

In the case of `OC1Cc2cc(Cl)ccc2C(=C2CCNCC2)c2ncccc21` (configuration not stated), in “in vitro [2]”, the hepatocyte CLint at 4 h is 3.14 µL/min/1e6 cells. This compound displayed a Papp in “in vitro [3]” of 78.4 ×10⁻⁶ cm/s. This compound also yielded a logD in “physchem” of 1.1.

Compound `CCOC(=O)N1CCC2(CC1)OC21c2ccc(Cl)cc2CCc2ccc[n+]([O-])c21` (configuration not stated) registered a microsomal CLint at 1 h, 10 µM in “in vitro [1]” of less than 7 µL/min/mg. This compound registered a hepatocyte CLint at 4 h in “in vitro [2]” of 4.6 µL/min/1e6 cells. Also, the Papp in “in vitro [3]” stood at 15.2 ×10⁻⁶ cm/s. The compound further displayed a logD in the data set “physchem” of 2.1.

The compound `CCOC(=O)N1CCC(=C2c3ccc(Cl)cc3CCc3c(CO)ccnc32)CC1` displayed a microsomal CLint at 1 h, 10 µM in the data set “in vitro [1]” of 283 µL/min/mg. The hepatocyte CLint at 4 h in the data set “in vitro [2]” worked out at 58.6 µL/min/1e6 cells. The apparent permeability coefficient (Papp) in the data set “in vitro [3]” was found to be 16.2 ×10⁻⁶ cm/s. Besides, the logD in “physchem” was 2.6.

As for `CCOC(=O)N1CC(O)C(=C2c3ccc(Cl)cc3CCc3cccnc32)C(O)C1` (configuration not stated), the microsomal CLint at 1 h, 10 µM in the data set “in vitro [1]” worked out at 35 µL/min/mg. In the data set “in vitro [2]”, this compound showed a hepatocyte CLint at 4 h of 18 µL/min/1e6 cells. The compound further yielded an apparent permeability (Papp) in the data set “in vitro [3]” of 23 ×10⁻⁶ cm/s. The same compound gave a log distribution coefficient (logD) in “physchem” of 2.8.
